The results in this text go back to publication PMC8365601, “Terphenyl-Based Small-Molecule Inhibitors of Programmed Cell Death-1/Programmed Death-Ligand 1 Protein–Protein Interaction” (Journal of Medicinal Chemistry, 2021).

The target of one series is T1, human PD-L1 (Homo sapiens, UniProt Q9NZQ7).
T1 construct: pET-21b plasmid carrying the PD-L1 gene (amino acids 18–134); made in house; host or cells: Escherichia coli BL21
As to the kind of experiment: 1H NMR titration with human PD-L1. Format: binding. Particulars: molar ratio 1:1. As to the method:
NMR spectra were recorded in PBS pH 7.4 containing 10% (v/v) of D2O added to the samples to provide the lock signal. Water suppression was carried out using the WATERGATE sequence. All the spectra were recorded at 300 K using a Bruker AVANCE 600 MHz spectrometer with the cryo-platform. The spectra were recorded at the ligand/protein ratio of 1:1, unless stated otherwise. The samples were prepared by adding small amounts of a 50 mM ligand stock solution in DMSO to the protein solution (0.20 mL) of PD-L1 fragment at a concentration of 0.2 mM. Spectra were visualized using TopSpin 4.0.2.

The target of the next series is PD-1/PD-L1 complex (Homo sapiens, UniProt Q9NZQ7). Kind of series: HTRF assay of PD-1/PD-L1 complex dissociation (CisBio).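 As to all read-outs here: human PD-L1 at 5 nM with human PD-1 at 50 nM, TR-FRET signal read after 2 h at room temperature, background removed via negative control and scaled to positive control.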 Particulars: for IC50: HTRF; for remaining activity at 0.005 µM: 2 h. (In TR-FRET formats the signal depends on donor and acceptor labels being close together.)
Chain of PD-1/PD-L1 complex (Q9NZQ7 19-238 limits assumed, one chain of several): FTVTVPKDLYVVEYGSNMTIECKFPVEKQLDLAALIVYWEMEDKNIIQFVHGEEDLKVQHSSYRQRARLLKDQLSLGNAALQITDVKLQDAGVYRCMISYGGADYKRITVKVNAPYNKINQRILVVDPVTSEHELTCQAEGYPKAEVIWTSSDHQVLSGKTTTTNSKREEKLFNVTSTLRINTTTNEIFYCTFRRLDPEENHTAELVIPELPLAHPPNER
Series [1] can be described thus: Cytotoxicity assay toward Jurkat-ECs. Format: cell-based. Particulars: human, Jurkat-EC cells, SI csv. As to the method:
The cytotoxicity of compounds was verified toward Jurkat-ECs since these cells provide the readout in the ICB assay and present a much higher degree of susceptibility to the compounds’ toxicity than CHO-K1 cells (not shown). Jurkat-ECs were seeded on 96-well transparent plates in the presence of increasing concentrations of the compounds with DMSO-treated cells as a control. The concentration of DMSO was kept constant (0.1%). After 48 h of incubation, a tetrazolium reagent, Biolog redox dye MIX MB (Biolog), was added according to the manufacturer’s protocol, and the culture plates were incubated for an additional 2 h (37 °C, 5% CO2). The absorbance was measured using a Spark microplate reader (Tecan) at 590 nm with 750 nm as a reference. The data are presented as Jurkat-EC survival relative to DMSO-treated control cells. Data points represent mean ± SD values from three independent experiments. Half-maximal effective concentrations (EC50 values) were calculated from the dose–response curve using OriginPro 2020 (OriginLab) software.

The target of a further series is T2, PD-1/PD-L1 interaction (Homo sapiens, UniProt Q9NZQ7).
T2 construct: host or cells: CHO-K1 (CHO/TCRAct/PD-L1) and Jurkat effector cells
T2 sequence (Q9NZQ7 19-290): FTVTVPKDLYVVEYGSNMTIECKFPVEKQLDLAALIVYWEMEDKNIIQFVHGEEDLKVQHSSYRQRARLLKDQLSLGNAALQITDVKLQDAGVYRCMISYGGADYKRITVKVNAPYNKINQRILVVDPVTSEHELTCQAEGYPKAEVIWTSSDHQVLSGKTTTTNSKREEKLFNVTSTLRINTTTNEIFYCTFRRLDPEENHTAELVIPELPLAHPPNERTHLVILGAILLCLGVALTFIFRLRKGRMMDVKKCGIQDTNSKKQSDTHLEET
Kind of series: PD-1/PD-L1 ICB assay (Jurkat-ECs with CHO/TCRAct/PD-L1 cells, luciferase). In kind it is cell-based. Particulars: Jurkat-ECs with CHO/TCRAct/PD-L1, 6 h; SI csv; read-out: Bioactivity (EC50 in the ICB assay). As to the method: After a successful optimization of the terphenyl compounds, the activity of the optimized molecules 7a and 8a–j in a cellular context was assessed. To this end, we first performed the PD-1/PD-L1 ICB assay. In this assay, T-cell receptor (TCR)-mediated activation of Jurkat effector cells (Jurkat-ECs) is reduced by the presence of PD-L1, exposed at the surface of CHO/TCRAct/PD-L1 cells (Figure 3A).
The functional assay of the blockade of PD-1/PD-L1 interaction in vitro (PD-1/PD-L1 Blockade Bioassay, Promega) was performed according to the manufacturer’s protocol. CHO/TCRAct/PD-L1 cells or CHO/TCRAct or CHO-K1 cells were seeded on 96-well white plates at the density of 10,000 cells/well and the next day overlaid with Jurkat T cells (20,000 cells/well) in the presence of increasing concentrations of the compounds with DMSO only as a control (the concentration of DMSO was kept constant at 0.1%) or atezolizumab, as a positive control, anti-PD-L1 monoclonal antibody (Selleckchem). The 2.5-fold dilutions of atezolizumab were prepared in the assay buffer (RPMI 1640 + 1% FBS) on the day of the assay. Activation of the Jurkat T cells, reflected by luciferase activity, was monitored by luminescence measurements after 6 h of incubation (37 °C, 5% CO2), and 20 min of additional incubation with the Bio-Glo assay reagent (Promega) at room temperature. The luminescence was read on a Spark microplate reader (Tecan). The data are presented as fold induction of the luminescence signal relative to either untreated (for atezolizumab) or DMSO-treated (for compound) cells. Data points represent mean ± SD values from three to five independent experiments. Half-maximal effective concentrations (EC50 values) were calculated from the Hill curve fitting to the experimental data using Origin Pro 2020 software (OriginLab).

Series [2] concerns primary CD4+ and CD8+ T cells (PBMCs). Kind of series: T-cell activation (TCA) assay, PBMCs with CHO/TCRAct/PD-L1 cells, flow cytometry. In kind it is cell-based, human. Particulars: 48 h; compounds 0.1, 0.5, 2.5 μM; mAbs 5 μg/mL. As to the method: A standard ICB assay relies on artificial Jurkat-ECs, which are surrogates of T-cells. To verify the potential of the compounds to reactivate the PD-L1-blocked primary T cells, a modified assay termed T-cell activation (TCA) was carried out.[32] In this assay, human primary peripheral blood mononuclear cells (PBMCs) are allowed to make contact with CHO/TCRAct/PD-L1 cells alone or in the presence of PD-1/PD-L1 blockers, and the activation of CD4^+ and CD8^+ T cell is monitored by flow cytometry.
Anticoagulant citrate dextrose-A-treated blood from healthy donors was purchased from the Regional Center of Blood Donation and Blood Therapy in Krakow, Poland. PBMCs were isolated from whole blood by density gradient centrifugation using Pancoll human separating solution (PAN-Biotech GmbH, Aidenbach, Germany). The separated cells were washed and resuspended in RPMI 1640 medium (Biowest) containing 10% FBS (Biowest). PBMCs were added at an amount of 3 × 10^5 to CHO, CHO/TCRAct, or CHO/TCRAct/PD-L1 cells preseeded on 24-well plates in the presence of either anti-PD-L1 mAbs (at the final concentration 5 μg/mL): durvalumab (Selleckchem), atezolizumab (Selleckchem), or avelumab (MedChemExpress) or tested compounds at the concentrations 0.1, 0.5, and 2.5 μM. Untreated cells were used as controls for antibody treatment, while DMSO-treated cells [0.1% (v/v)] were used as controls for compound treatment. The cells were incubated for 48 h (37 °C, 5% CO2) and then detached from the plates with TrypLe Select Enzyme (Thermo Fisher). PBMCs were stained for 20 min at room temperature with the antibodies: anti-CD4-FITC, anti-CD8-BV510, anti-CD69-APC, anti-CD25-PE, anti-HLA-DR-PerCP, and anti-PD1-PECy7 (Becton Dickinson Biosciences, BD). Following two washing steps, the cells were analyzed with a FACSCanto II cytometer. Data analysis was carried out with FlowJo software, followed by statistical significance calculations done with Origin Pro 2020 software (OriginLab). Statistical significance was analyzed with one-way analysis of variance (ANOVA), followed by the Fisher’s posthoc test: *p < 0.05, **p < 0.01, […].

[3] abbreviates: read-out: % of undissociated complex at 5 nM.
Setting [4] is: read-out: HTRF % of the undissociated complex at 5 nM.
[5] abbreviates: Table 4, <1.00 = limit of quantification reached.

Where two headings read alike, the source gives them in different places.

T1 sequence (Q9NZQ7 18-134): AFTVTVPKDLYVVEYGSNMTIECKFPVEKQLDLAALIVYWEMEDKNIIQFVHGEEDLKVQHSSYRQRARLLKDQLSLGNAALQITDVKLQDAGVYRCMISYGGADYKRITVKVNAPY
Protocol for PD-1/PD-L1 complex: HTRF was performed using the certified CisBio assay according to the manufacturer’s guidelines. The experiments were performed at 5 nM h-PD-L1 and 50 nM hPD-1 in the final formulation at 20 μL final volume in the well. To determine the half-maximal inhibitory concentration (IC50) of tested compounds, measurements were performed on two individual dilution series, unless states otherwise. After mixing all components according to the CisBio protocol, the plate was left for 2 h incubation at room temperature, followed by time-resolved fluorescence energy transfer (TR-FRET) measurement on Tecan Spark 20M. Collected data were background-subtracted on the negative control, normalized on the positive control, averaged, and fitted with normalized Hill’s equation to determine the IC50 value using Mathematica 12.

What is called IC50 is the concentration needed to halve the response being measured. A high value points to lower potency. With `Cc1c(-c2ccc(CO)cc2)cccc1-c1ccc2c(c1)OCCO2` [4a, (3′-(Benzo-1,4-dioxan-6-yl)-2′-methyl-[1,1′-biphenyl]-4-yl)methanol], the “change of hPD-L1 1H NMR spectrum on adding compound” value (“change of hPD-L1 1H NMR spectrum” for short) at human PD-L1 is on record as “broadening of the hPD-L1 proton signals”. Besides, the IC50 on PD-1/PD-L1 complex (Table 1) was 5.52 ± 0.04 µM.

Broadly, the EC50 is the concentration giving half of the maximal effect. `COc1cc(-c2cccc(-c3ccc4c(c3)OCCO4)c2Cl)ccc1CNCCNC(C)=O` [7a, N-(2-(((3′-(Benzo-1,4-dioxan-6-yl)-2′-chloro-3-methoxy-[1,1′-biphenyl]-4-yl)methyl)amino)ethyl)acetamide] gave an EC50 at 48 h in series [1] of 3.19 ± 0.41 µM. For the same molecule, the EC50 on PD-1/PD-L1 interaction amounted to 2.82 ± 0.4 µM. In addition, the “change of hPD-L1 1H NMR spectrum” value on human PD-L1 is recorded as “broadening of the hPD-L1 proton signals”. Moreover, the complex dissociation result at PD-1/PD-L1 complex (5 nM ligand) is on record as “complete complex dissociation”. The remaining activity at 0.005 µM at PD-1/PD-L1 complex (setting [3]) and on PD-1/PD-L1 complex (setting [4]) was 0% throughout. This molecule registered an IC50 against PD-1/PD-L1 complex (Table 3) of 0.00082 ± 2e-05 µM.

Regarding `CC(=O)NCCNCc1ccc(-c2cccc(-c3ccc4c(c3)OCCO4)c2Cl)cc1OCC#N` [7e, N-(2-(((3′-(Benzo-1,4-dioxan-6-yl)-2′-chloro-3-(cyanomethoxy)-[1,1′-biphenyl]-4-yl)methyl)amino)ethyl)acetamide], the “change of hPD-L1 1H NMR spectrum” value at human PD-L1 was “broadening of the hPD-L1 proton signals”. At PD-1/PD-L1 complex (5 nM ligand), the complex dissociation is 99%. The remaining activity at 0.005 µM at PD-1/PD-L1 complex (setting [3]) and on PD-1/PD-L1 complex (setting [4]) was 1% throughout.

For the molecule `COc1cc(-c2cccc(-c3ccc4c(c3)OCCO4)c2Cl)ccc1CN1CCNCC1` [8a, 1-((3′-(Benzo-1,4-dioxan-6-yl)-2′-chloro-3-methoxy-[1,1′-biphenyl]-4-yl)methyl)piperazine], the remaining activity at 0.005 µM on PD-1/PD-L1 complex (setting [3]) and on PD-1/PD-L1 complex (setting [4]) was 38% throughout. On PD-1/PD-L1 complex (setting [5]), this molecule yielded an IC50 of 0.01809 ± 9e-05 µM.

`COc1cc(-c2cccc(-c3ccc4c(c3)OCCO4)c2Cl)ccc1CN1CCN(C(N)=O)CC1` [8b, 4-((3′-(Benzo-1,4-dioxan-6-yl)-2′-chloro-3-methoxy-[1,1′-biphenyl]-4-yl)methyl)piperazine-1-carboxamide]: the remaining activity at 0.005 µM at PD-1/PD-L1 complex (setting [3]) and at PD-1/PD-L1 complex (setting [4]) was 28% each time. At PD-1/PD-L1 complex (setting [5]), the IC50 was < 0.001 µM.

For `COc1cc(-c2cccc(-c3ccc4c(c3)OCCO4)c2Cl)ccc1CN1CCN(C(C)=O)CC1` [8c, 1-(4-((3′-(Benzo-1,4-dioxan-6-yl)-2′-chloro-3-methoxy-[1,1′-biphenyl]-4-yl)methyl)piperazin-1-yl)ethan-1-one], the remaining activity at 0.005 µM at PD-1/PD-L1 complex (setting [3]) and at PD-1/PD-L1 complex (setting [4]) was 40% each time. Besides, the IC50 at PD-1/PD-L1 complex (setting [5]) is < 0.001 µM.

Consider `COc1cc(-c2cccc(-c3ccc4c(c3)OCCO4)c2Cl)ccc1CN1CCN(C(=O)CN)CC1` [8d, 2-Amino-1-(4-((3′-(benzo-1,4-dioxan-6-yl)-2′-chloro-3-methoxy-[1,1′-biphenyl]-4-yl)methyl)piperazin-1-yl)ethan-1-one], for which the “% of the undissociated (remaining) complex” value at PD-1/PD-L1 complex (5 nM ligand) came out at 5%. Also, the remaining activity at 0.005 µM at PD-1/PD-L1 complex (setting [3]) and at PD-1/PD-L1 complex (setting [4]) was 5% each time. Besides, the IC50 at PD-1/PD-L1 complex (setting [5]) was < 0.001 µM.

On to `COc1cc(-c2cccc(-c3ccc4c(c3)OCCO4)c2Cl)ccc1CN1CCN(S(C)(=O)=O)CC1` [8e, 1-((3′-(Benzo-1,4-dioxan-6-yl)-2′-chloro-3-methoxy-[1,1′-biphenyl]-4-yl)methyl)-4-(methylsulfonyl)piperazine], for which the remaining activity at 0.005 µM on PD-1/PD-L1 complex (setting [3]) and at PD-1/PD-L1 complex (setting [4]) was 88% in each case. The IC50 at PD-1/PD-L1 complex (setting [5]) amounted to 0.104 ± 0.00217 µM.

`COc1cc(-c2cccc(-c3ccc4c(c3)OCCO4)c2Cl)ccc1CNCCNC(=O)CN` [8f, 2-Amino-N-(2-(((3′-(benzo-1,4-dioxan-6-yl)-2′-chloro-3-methoxy-[1,1′-biphenyl]-4-yl)methyl)amino)ethyl)acetamide] showed an EC50 at 48 h in series [1] of 3.1 ± 0.22 µM. In addition, at PD-1/PD-L1 interaction, the EC50 is 3.28 ± 0.6 µM. Besides, the remaining activity at 0.005 µM on PD-1/PD-L1 complex (setting [3]) and on PD-1/PD-L1 complex (setting [4]) was 8% in each case. Also, the IC50 on PD-1/PD-L1 complex (setting [5]) is < 0.001 µM.

As to `COc1cc(-c2cccc(-c3ccc4c(c3)OCCO4)c2Cl)ccc1CNCCNS(C)(=O)=O` [8g, N-(2-(((3′-(Benzo-1,4-dioxan-6-yl)-2′-chloro-3-methoxy-[1,1′-biphenyl]-4-yl)methyl)amino)ethyl)methanesulfonamide], the EC50 at 48 h in series [1] turned out to be 4.47 ± 0.58 µM. Further, the EC50 on PD-1/PD-L1 interaction worked out at 11.1 ± 4.35 µM. For the same molecule, the remaining activity at 0.005 µM on PD-1/PD-L1 complex (setting [3]) and on PD-1/PD-L1 complex (setting [4]) was 32% each time. Moreover, the IC50 against PD-1/PD-L1 complex (setting [5]) turned out to be 0.00207 ± 4e-05 µM.

As for “avelumab: therapeutic anti-PD-L1 antibody”, the “numbers of PD-1-positive T cells” value in series [2] is “increases the expression of PD-1 on T-cells”.

With “durvalumab: therapeutic anti-PD-L1 antibody”, the “numbers of PD-1-positive T cells” value in series [2] was “increases the expression of PD-1 on T-cells”.
